Laboratory results reported in publication PMC4915685 (PLoS ONE, 2016).

Key:
human plasma protein = assay: Plasma protein binding; type: in vitro ADME; details: over the range of 0.1 to 10 μg/mL (unpublished results)
[1] = target: T1, dog plasma DPP-4 activity (Canis lupus familiaris, UniProt A0A8I3Q2I8); assay: Inhibition of plasma DPP-4 activity, dog plasma (GP-pNA); type: biochemical
T1 construct: tissue Kitayama Labes Co., Ltd. (animals); host or cells: beagle dog plasma
Experimental: Male Sprague–Dawley rats (7 weeks old, n = 30) and male beagle dogs (2–5 years old, n = 3) were purchased from CLEA Japan (Tokyo, Japan) and Kitayama Labes Co., Ltd. (Nagano, Japan), respectively. […] Rat blood samples were taken from abdominal vein under ether inhalation anesthesia in anesthetized rats before euthanasia by exsanguination. Dog blood samples were collected from anterior limb veins in conscious dogs that were restrained in a retainer. […] Plasma samples were prepared and stored at -80°C before use.

[2] = target: T2, prolyl endopeptidase (PEP) (Rattus norvegicus, UniProt O70196); assay: PEP inhibition assay; type: biochemical
T2 construct: were prepared from rat kidney and brain, respectively; from tissue; host or cells: rat brain
T2 sequence (O70196 1-710): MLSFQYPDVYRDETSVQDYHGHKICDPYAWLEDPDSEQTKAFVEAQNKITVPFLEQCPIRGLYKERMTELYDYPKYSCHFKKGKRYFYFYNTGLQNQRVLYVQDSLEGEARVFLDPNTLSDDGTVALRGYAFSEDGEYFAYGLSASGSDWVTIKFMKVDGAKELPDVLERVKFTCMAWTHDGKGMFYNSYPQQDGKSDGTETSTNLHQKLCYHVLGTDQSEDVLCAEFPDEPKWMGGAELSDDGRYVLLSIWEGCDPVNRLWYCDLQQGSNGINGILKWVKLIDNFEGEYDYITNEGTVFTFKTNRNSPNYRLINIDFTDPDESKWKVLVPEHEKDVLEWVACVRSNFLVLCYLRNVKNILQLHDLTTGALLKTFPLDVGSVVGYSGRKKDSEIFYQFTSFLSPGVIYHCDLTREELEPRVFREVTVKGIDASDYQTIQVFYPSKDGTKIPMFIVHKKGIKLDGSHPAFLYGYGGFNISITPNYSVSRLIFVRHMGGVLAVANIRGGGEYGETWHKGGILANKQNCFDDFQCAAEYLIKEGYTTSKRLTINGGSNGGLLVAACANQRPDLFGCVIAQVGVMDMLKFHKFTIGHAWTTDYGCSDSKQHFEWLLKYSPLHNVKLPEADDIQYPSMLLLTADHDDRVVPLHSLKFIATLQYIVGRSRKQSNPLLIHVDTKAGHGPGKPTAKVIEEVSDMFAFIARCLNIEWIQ

T2DM patients = details: cited from earlier work
[3] = design: method as in earlier work; details: 100 mg single dose, 168 hours after administration, Japanese healthy volunteers; cited from earlier work

T1 sequence (A0A8I3Q2I8 1-765): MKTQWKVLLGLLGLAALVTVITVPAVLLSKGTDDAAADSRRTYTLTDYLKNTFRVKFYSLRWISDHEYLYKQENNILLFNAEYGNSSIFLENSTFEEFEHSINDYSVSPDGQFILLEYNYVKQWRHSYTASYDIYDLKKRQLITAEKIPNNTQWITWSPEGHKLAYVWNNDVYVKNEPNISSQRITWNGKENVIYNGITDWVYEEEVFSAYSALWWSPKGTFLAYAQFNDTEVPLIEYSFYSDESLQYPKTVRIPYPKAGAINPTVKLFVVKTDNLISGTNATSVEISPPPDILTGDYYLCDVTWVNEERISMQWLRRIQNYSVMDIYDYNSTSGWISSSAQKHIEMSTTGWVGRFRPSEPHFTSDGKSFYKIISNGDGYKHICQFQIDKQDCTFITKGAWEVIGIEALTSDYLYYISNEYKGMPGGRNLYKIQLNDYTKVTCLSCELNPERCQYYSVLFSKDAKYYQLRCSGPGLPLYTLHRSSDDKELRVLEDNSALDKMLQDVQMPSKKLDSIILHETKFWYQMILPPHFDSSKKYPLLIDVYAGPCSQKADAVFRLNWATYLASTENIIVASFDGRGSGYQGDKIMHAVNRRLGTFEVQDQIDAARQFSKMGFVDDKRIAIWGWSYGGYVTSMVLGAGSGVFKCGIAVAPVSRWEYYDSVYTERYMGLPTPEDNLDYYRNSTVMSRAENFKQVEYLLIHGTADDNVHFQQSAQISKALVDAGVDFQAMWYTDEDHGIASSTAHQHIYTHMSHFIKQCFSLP

| Compound | binding to human plasma protein (human plasma protein) | IC50 [1] | IC50 [2] | safety in clinical studies (T2DM patients; clinical studies) | efficacy in terms of reduction of HbA1c versus alogliptin 25 mg daily dosing (T2DM patients; trelagliptin 100 mg weekly dosing, T2DM patients) | plasma trelagliptin concentration [mean (SD)] [3] |
| --- | --- | --- | --- | --- | --- | --- |
| Cn1c(=O)cc(N2CCC[C@@H](N)C2)n(Cc2ccccc2C#N)c1=O [alogliptin, 2-[6-(3(R)-aminopiperidin-1-yl)-3-methyl-2,4-dioxo-3,4-dihydro-2H-pyrimidin-1-ylmethyl]benzonitrile, reference compound] | 28.2–32.3% |  |  |  |  |  |
| Cn1c(=O)cc(N2CCC[C@@H](N)C2)n(Cc2cc(F)ccc2C#N)c1=O [trelagliptin, 2-[6-(3(R)-aminopiperidin-1-yl)-3-methyl-2,4-dioxo-3,4-dihydro-2H-pyrimidin-1-ylmethyl]-4-fluorobenzonitrile] | 22.1–27.6% | 6.2 nM | > 100000 nM | no major safety concerns | non-inferior | 2.12 (0.679) ng/mL |
